Entries after “also recorded” stand apart in the source; their conditions may differ.

Experimental findings from patent publication US7687079B2, “Methods of treating ileus” (priority 2002, dated 2010) are described below.

Experiment [1] concerns rats that underwent small bowel transplantation. The experiment in a line: intestinal transit of orally fed fluorescein-labeled dextran after SITx. To be noted: for distribution of fluorescent label along the gastrointestinal tract: 2 hours after oral feeding. It is filed as in vivo, rat. As to the method: To determine whether CO is protective against ileus associated with small bowel transplantation, orthotopic SITx was performed in syngenic Lewis rats. SITx with caval drainage was performed using a previously described procedure. […] The graft was perfused via the aortic segment with 5 ml chilled Ringer's lactate solution, and the intestinal lumen was irrigated with 20 ml of cold saline solution containing 0.5% neomycin-sulfate (Sigma, St. Louis, Mo.). End-to-side anastomoses between the graft aorta and the recipient infrarenal aorta, and between the graft portal vein and recipient vena cava, were performed with 10-0 Novafil™ suture. The cold ischemic time was 1 hour. The entire recipient intestine was removed and the enteric continuity was restored by proximal and distal end-to-end intestinal anastomoses. Recipient animals were given 20 mg/day prophylactic cefamandole nafate for 3 postoperative days. Transplanted recipients were given water 3 hours after surgery, and were fed 24 hours after surgery.
Four groups of animals were examined in this study, two of which received a SITx. Group 1 consisted of unoperated normal rats. Group 2 animals were exposed to CO with no surgery. In Group 3, syngeneic SITx were performed and the recipients kept in room air. Group 4 consisted of SITx recipients that were placed in the CO chamber for 1 hour before surgery and then re-exposed to CO immediately following surgery until sacrificed. In both Groups 3 and 4, normal LEW rats served as donors.
The animals were exposed to CO at a concentration of 250 ppm. Briefly, 1% CO in air was mixed with air (21% oxygen) in a stainless steel mixing cylinder and then directed into a 3.70 ft^3 glass exposure chamber at a flow rate of 12 L/min. A CO analyzer (Interscan, Chatsworth, Calif.) was used to measure CO levels continuously in the chamber. CO concentrations were maintained at 250 ppm at all times. The animals were supplied food and water during the exposures.
Intestinal transit was measured in controls and manipulated animals 48 hours postoperatively by evaluating the intestinal distribution of fluorescein-labeled dextran (Molecular Probes). Animals were lightly sedated with inhaled isofluran and fed orally with labeled dextran (200 μl of 6 mg/ml in saline). Two hours after administration, the animal was sacrificed and the entire bowel from stomach to distal colon was collected. […] After pelleting the intestinal tissue and chyme, aliquots of the supernatant were read in duplicate on a plate reader (CytoFluor II; excitation wavelength 530 nm and emission 590 nm) for quantification of the fluorescent signal in each bowel segment. […] Intestinal transit was determined for statistical analysis by calculating the geometric center (GC).

Experiment [2] relates to IL-1β mRNA. The experiment is described as follows: IL-1β mRNA in muscularis after IM (real time RT-PCR). Type of experiment: in vivo, mouse. To be noted: IM + CO vs IM, 6 hr. As to the method: Pro- and anti-inflammatory gene expression was determined by real time RT-PCR. The small intestinal muscularis externa was collected at 4 time points (3, 6, 12, and 24 hr) postoperatively and snap frozen in liquid nitrogen. Total RNA extraction was performed using the guanidium-thiocyanate phenol-chloroform extraction method as described in Eskandari et al. (Id.) RNA pellets were resuspended in RNA-secure resuspension solution (Ambion Inc., Austin, Tex.), followed by removal of potential contaminating DNA by treatment with DNase I (DNA-Free Kit, Ambion Inc., Austin, Tex.). Equal aliquots (5 μg) of total RNA from each sample were quantified by spectrophotometry (wavelength […]). Peak mRNA expression was quantified in duplicate by SYBR Green two-step, real-time RT-PCR. β-actin was used as the endogenous reference. […] Real-time PCR data were plotted as the ΔRn fluorescence signal versus the cycle number. […] Quantification of mRNA expression was normalized to β-actin and calculated relative to control using the comparative CT method.
To exclude PCR amplification of contaminating genomic DNA, RT-negative controls (samples containing RNA which was not reverse transcribed) were included in each PCR reaction. […] PCR amplification efficiency of each target cDNA was measured by determining the colinearity of serial dilutions. […]

Experiment [3] concerns IL-10 mRNA. The experiment in a line: IL-10 mRNA in muscularis after IM (real time RT-PCR). Type of experiment: in vivo, mouse. As to the method: Pro- and anti-inflammatory gene expression was determined by real time RT-PCR. The small intestinal muscularis externa was collected at 4 time points (3, 6, 12, and 24 hr) postoperatively and snap frozen in liquid nitrogen. Total RNA extraction was performed using the guanidium-thiocyanate phenol-chloroform extraction method as described in Eskandari et al. (Id.) RNA pellets were resuspended in RNA-secure resuspension solution (Ambion Inc., Austin, Tex.), followed by removal of potential contaminating DNA by treatment with DNase I (DNA-Free Kit, Ambion Inc., Austin, Tex.). Equal aliquots (5 μg) of total RNA from each sample were quantified by spectrophotometry (wavelength […]). Peak mRNA expression was quantified in duplicate by SYBR Green two-step, real-time RT-PCR. β-actin was used as the endogenous reference. Aliquoted RNA (40 ng) was subjected to first-strand complementary DNA (cDNA) synthesis using random hexamers (PE applied Biosystems, Foster City, Calif.) and Super Script II (Life Technologies, Rockville, Md.). Primers were taken from the literature or designed according to published sequences (Table 3). PCR reaction mixture was prepared using SYBR Green PCR Core Reagents (PE Applied Biosystems). Each sample was estimated in duplicate using the conditions recommended by the manufacturer. Real-time PCR data were plotted as the ΔRn fluorescence signal versus the cycle number. An arbitrary threshold was set to the midlinear portion of the log ΔRn cycle plot. The threshold cycle (CT) is defined as the cycle number at which the ΔRn, crosses this threshold. Quantification of mRNA expression was normalized to β-actin and calculated relative to control using the comparative CT method.
To exclude PCR amplification of contaminating genomic DNA, RT-negative controls (samples containing RNA which was not reverse transcribed) were included in each PCR reaction. Melting curve analyses were performed for each reaction to ensure amplification of specific product. In addition, gel electrophoresis were performed for the primers to confirm the absence of non-specific bands and that the amplicons were of the correct size. PCR amplification efficiency of each target cDNA was measured by determining the colinearity of serial dilutions. Serial 3-fold dilutions of cDNA were performed in triplicate for all primers. Standard curves were generated by plotting CT values against relative input copy number to validate the primers. Slopes of the standard curves of −3.2±0.3 with correlation coefficients of 0.99 were considered to be acceptable, having corresponding efficiencies of 100±10%. Analyses of Mediator Release from Intestinal Muscularis

Experiment [4] deals with pigs with ileus induced by mild manipulation of the small intestine. The experiment is described as follows: intestinal transit of steel ball bearings after IM in pig model. It is filed as in vivo. The conditions noted are these: CO 250 ppm for 3 hr prior to IM. How it is done:
Similar experiments were performed in a pig model. Ileus was induced by mild manipulation of the small intestine (IM). Pigs were exposed to CO (250 ppm) or air (controls) for a period of 3 hr prior to IM. Gastrointestinal function was assessed in vivo by observing intestinal transit of steel ball bearings placed within the small intestine.

As to `[C-]#[O+]` [CO, carbon monoxide], the intestinal transit result is “normal” in experiment [1] (SITx + CO, Table 2) and “improve” in experiment [4]. For the same compound, in experiment [1] (SITx rats, inhaled CO 250 ppm, 48 hours postoperatively), the “intestinal transit (Geometric Center)” value was “significantly improved”. For the same compound, the “distribution of fluorescent label along the gastrointestinal tract” value is “small bowel segments 6, 7 and 8” in experiment [1] (transplanted animals treated with CO); “small bowel segments 9 and 10, and in the cecum” in experiment [1] (unoperated control rats treated with CO). Further, the “peak IL-1β mRNA expression” value in experiment [2] is given as “significantly inhibited”. Moreover, in experiment [3] (CO treated manipulated animals, 3 hr time point), the “IL-10 gene expression relative to controls” value amounted to 43 fold. Besides, the “IL-10 gene expression, increase over manipulation alone” value in experiment [3] (IM + CO vs IM, 3 hr) is given as 300%. In experiment [3] (IM + CO vs IM, 3 hr but not 6 hr after surgery), the IL-10 message result is recorded as “increased”. Besides, the IL-10 expression entry in experiment [3] (control mice, CO inhalation alone, 3 and 6 hr) is “significant increase; also recorded: significantly increased”.
